Patent US11639348B2, “Compositions and methods for neuraminidase detection and quantification” (priority 2018, dated 2023)
Entries after “also recorded” stand apart in the source; their conditions may differ.

Legend:
[1] = target: sialidase from Micromonospora viridifaciens (NedA) (Micromonospora viridifaciens, UniProt Q02834); type: biochemical
[2] = Spontaneous hydrolysis of stock solution
[3] = target: influenza N2 subtype neuraminidase from A/Hong Kong/1/68 (H3N2) (Influenza A virus, UniProt Q91MA2); type: biochemical, influenza A/Hong Kong/1/68 (H3N2); settings: pH 7.6
B/Florida/04/2006 NA = type: biochemical, influenza B/Florida/04/2006; settings: pH 7.6
influenza virus NAs = type: biochemical
influenza B NAs = type: biochemical
B/Hong Kong/05/1972 NA = type: biochemical, influenza B/Hong Kong/05/1972; settings: pH 7.6
[4] = system: A/Washington/10/2008 H1N1 NA; type: biochemical, influenza A/Washington/10/2008 H1N1; settings: pH 7.6
[5] = system: A/Brisbane/59/2007 H1N1 NA; type: biochemical, influenza A/Brisbane/59/2007 H1N1; settings: pH 7.6
[6] = target: NA of A/WS/33 (H1N1) influenza virus (Influenza A virus, UniProt P03470); type: biochemical, influenza A/WS/33 (H1N1)
[7] = system: A/California/07/2009 H1N1 NA; type: biochemical, influenza A/California/07/2009 H1N1; settings: pH 7.6
NA activity of virus = type: biochemical
[8] = system: CC(=O)NC1C(NC(=N)N)C(F)C(Oc2c(F)cc3c(C)cc(=O)oc3c2F)(C(=O)O)OC1[C@H](O)[C@H](O)CO; assay: purified protein, by the assay type; settings: pH 7.6; 30.0 °C

Sequence of sialidase from Micromonospora viridifaciens (NedA) (Q02834 38-647): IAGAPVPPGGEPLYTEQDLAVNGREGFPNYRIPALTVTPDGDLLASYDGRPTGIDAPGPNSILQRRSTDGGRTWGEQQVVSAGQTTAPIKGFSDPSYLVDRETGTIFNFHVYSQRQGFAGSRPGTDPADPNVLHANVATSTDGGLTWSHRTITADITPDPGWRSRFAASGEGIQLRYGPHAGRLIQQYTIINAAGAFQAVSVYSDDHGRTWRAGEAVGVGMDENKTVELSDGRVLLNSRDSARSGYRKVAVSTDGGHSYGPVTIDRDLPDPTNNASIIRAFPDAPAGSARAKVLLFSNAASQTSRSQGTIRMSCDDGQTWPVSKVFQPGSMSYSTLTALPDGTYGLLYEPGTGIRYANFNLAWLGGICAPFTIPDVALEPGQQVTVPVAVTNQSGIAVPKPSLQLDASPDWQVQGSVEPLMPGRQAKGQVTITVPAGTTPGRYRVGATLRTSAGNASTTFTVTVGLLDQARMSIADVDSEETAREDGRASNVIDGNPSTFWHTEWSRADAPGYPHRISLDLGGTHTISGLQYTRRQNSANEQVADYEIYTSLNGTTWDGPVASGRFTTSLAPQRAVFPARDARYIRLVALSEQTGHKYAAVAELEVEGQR
Sequence of NA of A/WS/33 (H1N1) influenza virus (P03470 whole entry, looked up): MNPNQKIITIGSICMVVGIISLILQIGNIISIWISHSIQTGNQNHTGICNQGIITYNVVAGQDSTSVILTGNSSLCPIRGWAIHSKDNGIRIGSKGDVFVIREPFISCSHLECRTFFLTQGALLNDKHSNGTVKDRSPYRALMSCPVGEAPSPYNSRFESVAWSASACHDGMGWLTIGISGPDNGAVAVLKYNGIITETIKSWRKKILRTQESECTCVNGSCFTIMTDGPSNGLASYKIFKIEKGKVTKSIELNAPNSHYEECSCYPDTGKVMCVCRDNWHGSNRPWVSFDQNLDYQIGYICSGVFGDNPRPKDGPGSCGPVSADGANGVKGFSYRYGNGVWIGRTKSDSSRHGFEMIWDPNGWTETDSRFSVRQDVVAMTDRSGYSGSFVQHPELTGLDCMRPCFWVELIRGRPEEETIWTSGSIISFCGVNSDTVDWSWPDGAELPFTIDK
Sequence of influenza N2 subtype neuraminidase from A/Hong Kong/1/68 (H3N2) (Q91MA2 whole entry, looked up): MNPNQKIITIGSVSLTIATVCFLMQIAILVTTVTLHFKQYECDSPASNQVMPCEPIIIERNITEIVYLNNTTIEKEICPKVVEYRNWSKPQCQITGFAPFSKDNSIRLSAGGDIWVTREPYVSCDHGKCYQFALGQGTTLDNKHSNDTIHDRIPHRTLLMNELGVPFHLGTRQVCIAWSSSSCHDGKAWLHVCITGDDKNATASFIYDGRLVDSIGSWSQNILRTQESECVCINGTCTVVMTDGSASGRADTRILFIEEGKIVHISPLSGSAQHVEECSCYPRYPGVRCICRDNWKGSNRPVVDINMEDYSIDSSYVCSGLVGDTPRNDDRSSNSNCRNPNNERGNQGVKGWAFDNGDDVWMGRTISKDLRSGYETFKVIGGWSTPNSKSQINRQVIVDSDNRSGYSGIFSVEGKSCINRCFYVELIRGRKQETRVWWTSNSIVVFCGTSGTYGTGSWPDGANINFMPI

In the case of CC(=O)NC1C(O)C(F)C(Oc2c(F)cc3c(C)cc(=O)oc3c2F)(C(=O)O)OC1[C@H](O)[C@H](O)CO (stereo partly drawn) [compound 1, 5-Acetamido-3-fluoro-3,5-dideoxy-2α-(4-methyl-6,8-difluoromethylumbelli-feryl)-D-glycero-D-galactononulopyranosylnoic Acid], the “NedA concentration down to which burst size vs concentration is linear” value [1] is reported as no more than 0.7 nM, the “fluorescence response on titration of NedA (burst and turnover)” value ([1]; pH 7.6) is reported as “a classical burst phase of increased fluorescence was observed, followed by a steady-state phase” and the “stability of stock solution” value [2] is reported as “undergoes slow spontaneous hydrolysis”. For the same molecule, the “burst and turnover on titration of N2” value [3] was “a burst was indeed seen, but significant turnover was also observed”.
In the case of CC(=O)NC1C(N)C(F)C(Oc2c(F)cc3c(C)cc(=O)oc3c2F)(C(=O)O)OC1[C@H](O)[C@H](O)CO (stereo partly drawn) [compound 2, 5-Acetamido-4-amino-3-fluoro-3,4,5-trideoxy-2α-(4-methyl-6,8-difluoromethylumbelliferyl)-D-glycero-D-galactononulopyranosylnoic acid], the “burst and turnover on titration of N2” value [3] is reported as “produced a burst, but significant turnover was still observed”.
With CC(=O)NC1C(NC(=N)N)C(F)C(Oc2c(F)cc3c(C)cc(=O)oc3c2F)(C(=O)O)OC1[C@H](O)[C@H](O)CO (stereo partly drawn) [compound 3, 5-Acetamido-4-guanidine-3-fluoro-3,4,5-trideoxy-2α-(4-methyl-6,8-difluoromethylumbelliferyl)-D-glycero-D-galactononulopyranosylnoic acid] the Km (B/Florida/04/2006 NA) was 28.6 µM, the kcat (B/Florida/04/2006 NA) was 26.7 s⁻¹ and the “response on incubation with GH33 sialidase NedA” value [1] was “no significant response”. For the same molecule, the “time to reach plateau of titration” value (influenza virus NAs) was “about 30 min”, the time to inactivation (influenza B NAs) was “within several seconds” and the Km (B/Hong Kong/05/1972 NA) was 29.6 µM. For the same molecule, the kcat (B/Hong Kong/05/1972 NA) was 30.0 s⁻¹, the Km [4] was 62.2 µM and the kcat [4] was 63.3 s⁻¹. For the same molecule, the Km [5] was 41.1 µM, the kcat [5] was 32.6 s⁻¹ and the “NA concentration down to which reliable data are given” value [6] was “approximately 200 pM”. For the same molecule, the “burst, F2Mu released” value [6] was 27 nM, the “initial concentration of NA in the original virus sample” value [6] was 1.08 µM and the Km [7] was 31.9 µM. The kcat [7] was 76.4 s⁻¹ and the “burst and turnover on titration of N2” value [3] was “no detectable turnover at all, while a rapid initial burst was observed”.
With O=C1CCO1 [β-propiolactone] the “effect on NA activity compared to live virus” value (NA activity of virus) was “significantly reduced NA activities; also recorded: dramatically reduced NA activities”.
In the case of “(Influenza A virus (A/Hong Kong/1/1968(H3N2)))”, the Km [8] is reported as 45.6 µM, the kcat [8] is reported as 76.7 s⁻¹ and the kcat/Km [8] is reported as 1.68e+06 M⁻¹ s⁻¹.
For nonyl phenoxypolyethoxylethanol [NP40], the “effect on NA activity compared to live virus” value (NA activity of virus) was “did not affect the NA activity; also recorded: did not affect the NA activities”.
